{"source": "patent US10220005B2", "about": "(GW Research Limited, priority 2012, dated 2019)", "key": {"interleukin 1": {"test_system": "interleukin 1", "assay": "Piglet model of HI, interleukin 1 in brain tissue by microarrays", "assay_type": "in vivo", "conditions": "piglets", "experimental": "(§1) A piglet model of HI was used as described in (Alvarez et al. 2008). Briefly, an HI insult is induced in anesthetized 1-3 day-old piglets by occluding both carotid arteries and decreasing inspired oxygen from 21 to 10% for 30 min.\n(§2) Thirty minutes after the recovery of HI the test compound was administered via the i.v. route.\n(§3) At the end of the experiment, piglets are euthanized and the brain removed; one hemisphere was immediately frozen and stored at −80 ° C. whereas the other one was preserved in 4% paraformaldehide. A sample of frozen brain was obtained to perform a proton magnetic resonance spectroscopy (H+-MRS). Similarly managed piglets but without HI served as controls."}, "piglet model of HI": {"test_system": "piglet model of HI", "assay": "Piglet model of HI, Nissl staining of brain slices (Example 1)", "assay_type": "in vivo", "conditions": "piglets; for effect of co-administered antagonist on the CBD-induced reduction of neuronal death: given with CBD 1 mg/kg i.v., AM630 1 mg/kg, WAY100635 0.1 mg/kg, caffeine 10 mg/kg", "experimental": "as §1, §2, §3"}, "rat model of HI [1]": {"test_system": "rat model of HI", "assay": "Rat model of HI, neurobehavioral tests (rotarod, cylinder, novel object)", "assay_type": "in vivo, Wistar rats", "conditions": "rats, CBD 1 mg/kg s.c. single dose, tests at day 35", "experimental": "(§4) A rat model of HI was used as described by (Fernandez-Lopez et al., 2007). Briefly, an HI insult is induced in 7-10 day-old Wistar rats by electro-coagulating the left carotid artery under anaesthesia following by the exposure to 10% oxygen for 120 min.\nSham operated pups without hypoxia served as controls, and were treated with vehicle or CBD as indicated. The pups were then returned to their dams.\nAt day 35 rats underwent neurobehavioral tests: rotarod (to test coordination), cylinder (to test unilateral deficits) and novel object preference (to test memory impairments)."}, "rat model of HI [2]": {"test_system": "rat model of HI", "assay": "Rat model of HI, magnetic resonance imaging of brain lesion", "assay_type": "in vivo, Wistar rats", "conditions": "rats, CBD 1 mg/kg s.c. single dose, one month later (P37)", "experimental": "as §4\nThe pups were then returned to their dams.\nRats were then euthanized and the brain removed and stored in 4% paraforlmadehide. Magnetic resonance imaging was performed on the brains to evaluate the damaged area. In some rats, MRI was performed 7 days after HI."}}, "data": [{"smiles": "COc1ccc(C(=O)c2c(C)n(CCN3CCOCC3)c3cc(I)ccc23)cc1", "note": "[AM]", "values": [{"measurement": "effect of co-administered antagonist on the CBD reduction of IL-1 production", "setting": "interleukin 1; given with CBD 1 mg/kg i.v., AM630 1 mg/kg, WAY100635 0.1 mg/kg, caffeine 10 mg/kg", "result": "blunted"}, {"measurement": "effect of co-administered antagonist on the CBD-induced reduction of neuronal death", "setting": "piglet model of HI", "result": "blunted"}]}, {"smiles": "C=C(C)[C@@H]1CCC(C)=C[C@H]1c1c(O)cc(CCCCC)cc1O", "note": "[CBD, cannabidiol]", "values": [{"measurement": "production of IL-1 (concentration of interleukin 1 in brain tissue)", "setting": "interleukin 1; CBD 1 mg/kg i.v., 6 h after HI, microarrays", "result": "reduces"}, {"measurement": "coordination (RotaRod)", "setting": "rat model of HI [1]", "result": "normalization"}, {"measurement": "memory (novel object recognition)", "setting": "rat model of HI [1]", "result": "normalization"}, {"measurement": "motor performance (cylinder rear test)", "setting": "rat model of HI [1]", "result": "normalization"}, {"measurement": "volume of lesion (MRI; printed as brain volume)", "setting": "rat model of HI [2]", "result": "significantly reduced"}, {"measurement": "percentage of necrotic tissue in both the cortex and the hippocampus", "setting": "piglet model of HI; CBD 1 mg/kg i.v. 30 min after HI, brain tissue 6 h after HI", "result": "reduces"}]}, {"smiles": "COc1ccccc1N1CCN(CCN(C(=O)C2CCCCC2)c2ccccn2)CC1", "note": "[WAY]", "values": [{"measurement": "effect of co-administered antagonist on the CBD-induced reduction of neuronal death", "setting": "piglet model of HI", "result": "blunted"}]}, {"smiles": "Cn1c(=O)c2c(ncn2C)n(C)c1=O", "note": "[caffeine, Caffeine]", "values": [{"measurement": "effect of co-administered antagonist on the CBD-induced reduction of neuronal death", "setting": "piglet model of HI", "result": "not by caffeine"}]}]}
